Tested on: not listed separately
Assay: Antiproliferative activity against human DU145 cells assessed as growth inhibition after 48 hrs by sulforhodamine B assay
Type: functional
Conditions: DU-145, 48 h

Row | Structure (SMILES) | GI50 [µM] | TGI [µM]
1 | CNC(=O)c1cc(Oc2ccc3nc(NC(=O)Nc4cc(C(F)(F)F)cc(C(F)(F)F)c4)sc3c2)ccn1 | 1.25 | 2.98

Same assay, conditions: DU-145, 48 h, read-out: LC50 (the source's name)

Row | Structure (SMILES) | CC50 [µM]
2 | CNC(=O)c1cc(Oc2ccc3nc(NC(=O)Nc4cc(C(F)(F)F)cc(C(F)(F)F)c4)sc3c2)ccn1 | 7.14

Tested on: not listed separately
Assay: Antiproliferative activity against human TK10 cells assessed as growth inhibition after 48 hrs by sulforhodamine B assay
Type: functional
Conditions: TK-10, 48 h

Row | Structure (SMILES) | GI50 [µM] | TGI [µM]
3 | CNC(=O)c1cc(Oc2ccc3nc(NC(=O)Nc4cc(C(F)(F)F)cc(C(F)(F)F)c4)sc3c2)ccn1 | 1.67 | 3.35

Same assay, conditions: TK-10, 48 h, read-out: LC50 (the source's name)

Row | Structure (SMILES) | CC50 [µM]
4 | CNC(=O)c1cc(Oc2ccc3nc(NC(=O)Nc4cc(C(F)(F)F)cc(C(F)(F)F)c4)sc3c2)ccn1 | 6.72

Tested on: ACHN
Assay: Antiproliferative activity against human ACHN cells assessed as cell growth at 10^-6 M after 48 hrs by sulforhodamine B assay
Type: functional
Conditions: read-out: Activity

Row | Structure (SMILES) | growth at 1 µM [%]
5 | CNC(=O)c1cc(Oc2ccc3nc(NC(=O)Nc4cc(C(F)(F)F)cc(C(F)(F)F)c4)sc3c2)ccn1 | 32

Tested on: not listed separately
Assay: Antiproliferative activity against human UACC62 cells assessed as cell growth at 10^-8 M after 48 hrs by sulforhodamine B assay
Type: functional
Conditions: UACC-62, 48 h, read-out: Activity

Row | Structure (SMILES) | growth at 0.01 µM [%]
6 | CNC(=O)c1cc(Oc2ccc3nc(NC(=O)Nc4cc(C(F)(F)F)cc(C(F)(F)F)c4)sc3c2)ccn1 | 93

Tested on: not listed separately
Assay: Antiproliferative activity against human PC3 cells assessed as cell growth at 10^-4 M after 48 hrs by sulforhodamine B assay
Type: functional
Conditions: PC-3, 48 h, read-out: Activity

Row | Structure (SMILES) | growth at 100 µM [%]
7 | CNC(=O)c1cc(Oc2ccc3nc(NC(=O)Nc4cc(C(F)(F)F)cc(C(F)(F)F)c4)sc3c2)ccn1 | -75

Tested on: SK-MEL-28
Assay: Antiproliferative activity against human SK-MEL-28 cells assessed as cell growth at 10^-6 M after 48 hrs by sulforhodamine B assay
Type: functional
Conditions: SK-MEL-28, 48 h, read-out: Activity

Row | Structure (SMILES) | growth at 1 µM [%]
8 | CNC(=O)c1cc(Oc2ccc3nc(NC(=O)Nc4cc(C(F)(F)F)cc(C(F)(F)F)c4)sc3c2)ccn1 | 66

Tested on: NCI-H460
Assay: Antiproliferative activity against human NCI-H460 cells assessed as cell growth at 10^-4 M after 48 hrs by sulforhodamine B assay
Type: functional
Conditions: NCI-H460, 48 h, read-out: Activity

Row | Structure (SMILES) | growth at 100 µM [%]
9 | CNC(=O)c1cc(Oc2ccc3nc(NC(=O)Nc4cc(C(F)(F)F)cc(C(F)(F)F)c4)sc3c2)ccn1 | -71

Tested on: U-251
Assay: Antiproliferative activity against human U251 cells assessed as growth inhibition after 48 hrs by sulforhodamine B assay
Type: functional
Conditions: U-251, 48 h

Row | Structure (SMILES) | GI50 [µM] | LC50 [µM] | TGI [µM]
10 | CNC(=O)c1cc(Oc2ccc3nc(NC(=O)Nc4cc(C(F)(F)F)cc(C(F)(F)F)c4)sc3c2)ccn1 | 1.02 | 4.78 | 2.2

Tested on: NCI-H226
Assay: Antiproliferative activity against human NCI-H226 cells assessed as cell growth at 10^-6 M after 48 hrs by sulforhodamine B assay
Type: functional
Conditions: NCI-H226, 48 h, read-out: Activity

Row | Structure (SMILES) | growth at 1 µM [%]
11 | CNC(=O)c1cc(Oc2ccc3nc(NC(=O)Nc4cc(C(F)(F)F)cc(C(F)(F)F)c4)sc3c2)ccn1 | 71

Tested on: not listed separately
Assay: Antiproliferative activity against human IGROV1 cells assessed as cell growth at 10^-4 M after 48 hrs by sulforhodamine B assay
Type: functional
Conditions: IGROV-1, 48 h, read-out: Activity

Row | Structure (SMILES) | growth at 100 µM [%]
12 | CNC(=O)c1cc(Oc2ccc3nc(NC(=O)Nc4cc(C(F)(F)F)cc(C(F)(F)F)c4)sc3c2)ccn1 | -60

Tested on: not listed separately
Assay: Antiproliferative activity against human BT549 cells assessed as growth inhibition after 48 hrs by sulforhodamine B assay
Type: functional
Conditions: BT-549, 48 h

Row | Structure (SMILES) | GI50 [µM] | TGI [µM]
13 | CNC(=O)c1cc(Oc2ccc3nc(NC(=O)Nc4cc(C(F)(F)F)cc(C(F)(F)F)c4)sc3c2)ccn1 | 1.34 | 3.07

Same assay, conditions: BT-549, 48 h, read-out: LC50 (the source's name)

Row | Structure (SMILES) | CC50 [µM]
14 | CNC(=O)c1cc(Oc2ccc3nc(NC(=O)Nc4cc(C(F)(F)F)cc(C(F)(F)F)c4)sc3c2)ccn1 | 7.05

Tested on: not listed separately
Assay: Antiproliferative activity against human SF539 cells assessed as cell growth at 10^-7 M after 48 hrs by sulforhodamine B assay
Type: functional
Conditions: SF-539, 48 h, read-out: Activity

Row | Structure (SMILES) | growth at 0.1 µM [%]
15 | CNC(=O)c1cc(Oc2ccc3nc(NC(=O)Nc4cc(C(F)(F)F)cc(C(F)(F)F)c4)sc3c2)ccn1 | 99

Tested on: SN12C
Assay: Antiproliferative activity against human SN12C cells assessed as cell growth at 10^-8 M after 48 hrs by sulforhodamine B assay
Type: functional
Conditions: read-out: Activity

Row | Structure (SMILES) | growth at 0.01 µM [%]
16 | CNC(=O)c1cc(Oc2ccc3nc(NC(=O)Nc4cc(C(F)(F)F)cc(C(F)(F)F)c4)sc3c2)ccn1 | 99

Tested on: not listed separately
Assay: Antiproliferative activity against human OVCAR4 cells assessed as cell growth at 10^-6 M after 48 hrs by sulforhodamine B assay
Type: functional
Conditions: OVCAR-4, 48 h, read-out: Activity

Row | Structure (SMILES) | growth at 1 µM [%]
17 | CNC(=O)c1cc(Oc2ccc3nc(NC(=O)Nc4cc(C(F)(F)F)cc(C(F)(F)F)c4)sc3c2)ccn1 | 49

Tested on: not listed separately
Assay: Antiproliferative activity against human HCC2998 cells assessed as growth inhibition after 48 hrs by sulforhodamine B assay
Type: functional
Conditions: HCC 2998, 48 h

Row | Structure (SMILES) | GI50 [µM] | TGI [µM]
18 | CNC(=O)c1cc(Oc2ccc3nc(NC(=O)Nc4cc(C(F)(F)F)cc(C(F)(F)F)c4)sc3c2)ccn1 | 1.33 | 3.23

Source: ChEMBL document CHEMBL3797052 (Eur J Med Chem, 2016)
